Results: patent US4939132A, “Novel 5-alkylsulfonylsalicylanilides and microbiocidal compositions for controlling the growth of microorganisms” (The Research Foundation of State University of New York, priority 1985, dated 1990)
In brackets after ≈: the same amount, converted by molar mass. Where two headings read alike, the source gives them in different places.

What was measured:
A. viscosus [1] = experiment: Tube dilution assay (Macro-Broth Dilution Method), A. viscosus; assay type: cell-based; details: Actinomyces viscosus, read-out: Minimal Inhibitory Concentration
Protocol: (§1) Various compositions prepared in accord with the above examples were tested in vitro for minimal concentration to inhibit or kill organisms in comparison to prior art compounds. The test used is set forth in detail in Manual of Clinical Microbiology, third edition, pages 456-475 (Macro-BrothDilution Method), 1980, American society for microbiology.
(§2) In the test procedure serial dilutions of the antimicrobic compound are innoculated with the organism to be inhibited and incubated. The minimum inhibitory concentration (MIC) is the lowest concentration of antimicrobic compound that is achieved without visible growth of the organism. The test method comprises preparing a stock solution of antimicrobic compound and diluting it in a Meuller-Hinton broth. A series of sterile 13 by 100 mm, cotton-plugged, test tubes are set out wherein 2 ml of the broth diluted antimicrobic solution (working solution) is added to the first tube and to each remaining tube is added 1.0 ml of non-antimicrobic containing broth. 1.0 ml of working solution from the first tube is transferred to the second tube and thoroughly mixed therewith. Thereafter, 1.0 ml of the mixed solution is transferred to the third tube and mixed with the process continuing through the dilution steps desired. The tubes are then incubated at 35° C. for 16 to 20 hours. […] Various antimicrobic compounds designated (a)-(i) were tested for minimum inhibitory concentration in accord with the above procedure. Compounds (a)-(e) correspond to compounds (a)-(e) of example 9. Compounds (f)-(i) are as follow s: (f) 5-n -octylsulfonyl-4'-nitrosalicylanilide; (g) 5-n-decylsulfony-4'-bromosalicylanilide; (h) 5-n-hexylsulfonyl-4'-bromosalicylanilide; and, (i) 5-n-dodecylsulfonyl-4'-trifluoromethyl salicylanilide.

S. mutans [2] = experiment: In vitro plaque growth inhibition (bovine enamel slabs), S. mutans; assay type: cell-based, Streptococcus mutans; details: for Total Growth ID50 (50% growth inhibition dosage): 2 min contact, about 24 h incubation, anaerobic
Protocol: (§3) Various compositions prepared in accord with the above examples were tested in vitro for plaque inhibition in comparison with prior art compounds. The test used is set forth in detail in Comparison of Antiplaque Agents Using an In Vitro Assay Reflecting Oral Conditions by R. T. Evans et al, Journal of Dental Research, June 1977.
(§4) In summary incisor teeth from bovine mandibles, obtained immediately after slaughter, are cut into 4×8 mm enamel slabs and sterilized in a 0.15M NaCl solution buffered at a pH of 7.5 with 0.02M sodium phosphate (PBS soln). Before use the slabs are coated with sterile saliva and then rinsed twice in sterile PBS. The slabs are then placed in small plastic petri dishes containing various concentrations of the compositions to be tested. The test solution used in accordance is a solution of the test compound in a mixture of 20% by volume of ethanol, 40% by volume of propylene glycol and 40% by volume of a pH 8 aqueous buffer solution containing mono and di sodium phosphates. The slabs are left in the solution of the test compound for two minutes and then rinsed in sterile PBS solution. After rinsing, each slab is placed in a 10×75 mm cotton stoppered glass culture tube containing 1 ml of sucrose-broth culture medium which is then innoculated with a 24 hour culture of the desired microorganism standardized to an optical density (OD)540 of 0.75 for A. viscosus and S. mutans. […] of the inoculation medium is used. A. viscosus is incubated under aerobic conditions and the S. mutans is incubated under anaerobic conditions (5% CO2 and 95% H2). After incubation for about 24 hours the nonadherent organisms are removed and the tube is rinsed twice with 0.5 ml of PBS and the washings combined with the nonadherent organisms.
(§5) The tooth slabs are then transferred to 1 ml of 0.1 N NaOH and 1 ml of 0.1N NaOH is also added to the glass culture tubes. The slabs and tubes are then sonically agitated, if necessary to suspend the adherent organisms. The optical density of each of the three fractions is then measured on a spectophotometer. The tests are repeated with varying concentrations of the compositions being tested until growth inhibition curves can be developed. The 50% growth inhibition dosages (ID50) are then determined with a reliability of +or -80% or better. The compounds tested are samples (a)-(e) as follows: (a) tribromosalan; (b) 5-n-decanoyl-4'-nitrosalicylanilide; (c) 5-n-decylsulfonyl-4'-nitro-salicylanilide; (d) 5-n-decylsulfonyl-4'-trifluoromethyl-salicylanilide; and, (e) 5-n-decylsulfonyl-3'-trifluoromethyl-salicylanilide.

S. epidermidis = experiment: Tube dilution assay (Macro-Broth Dilution Method), S. epidermidis; assay type: cell-based; details: Staphylococcus epidermidis, read-out: Minimal Inhibitory Concentration
Protocol: as §1, §2

S. mutans [3] = experiment: Tube dilution assay (Macro-Broth Dilution Method), S. mutans; assay type: cell-based; details: Streptococcus mutans, read-out: Minimal Inhibitory Concentration
Protocol: as §1, §2

A. viscosus [4] = experiment: In vitro plaque growth inhibition (bovine enamel slabs), A. viscosus; assay type: cell-based, Actinomyces viscosus; details: for Total Growth ID50 (50% growth inhibition dosage): 2 min contact, about 24 h incubation, aerobic
Protocol: as §3, §4, §5

S. aureus = experiment: Tube dilution assay (Macro-Broth Dilution Method), S. aureus; assay type: cell-based; details: Staphylococcus aureus, Mueller-Hinton broth, 35° C., 16 to 20 hours, read-out: Minimal Inhibitory Concentration
Protocol: as §1, §2

S. pyogenes = experiment: Tube dilution assay (Macro-Broth Dilution Method), S. pyogenes; assay type: cell-based; details: Streptococcus pyogenes, read-out: Minimal Inhibitory Concentration
Protocol: as §1, §2

white rats = experiment: Acute oral toxicity, single dose; assay type: in vivo; details: 2,500 mg/kg dose group, eighth day; attributed to a punctured thoracic cavity during administration
Protocol: (§6) Twelve female white rats averaging 250-300 grams in weight were fasted overnight and divided into three groups of four animals each. In one group each animal received, by gavage tube, 4 ml of an aqueous solution of 1% methylcellulose, the drug delivery vehicle. This group was the control group. The remaining two groups received doses of 750 and 2500 mg/kg respectively of 5-n-decylsulfonyl-4'-trifluoromethyl-salicylanilide in 4-ml aqueous 1% methyl cellulose suspension.
(§7) Within the first week following this single dose only one animal died.
(§8) An autopsy was performed and the cause of death was attributed to a punctured thoracic cavity during administration of the drug.

[5] = Acute oral toxicity, single dose; assay type: in vivo; details: rat, in vivo; single dose oral route, Sprague-Dawley white rats
Protocol: as §6, §7, §8

man = details: in man; cited from earlier work
[6] = A. viscosus, Mueller-Hinton broth, 35° C., 16 to 20 hours
[7] = S. epidermidis, Mueller-Hinton broth, 35° C., 16 to 20 hours
[8] = S. mutans, Mueller-Hinton broth, 35° C., 16 to 20 hours
[9] = S. pyogenes, Mueller-Hinton broth, 35° C., 16 to 20 hours

## O=C(Nc1ccc(Br)cc1)c1cc(Br)cc(Br)c1O [(a), tribromosalan, reference compound]
A. viscosus [1]
  MIC: 0.5 µg/mL (≈ 1.11 µM)
S. mutans [2]
  Total Growth ID50 (50% growth inhibition dosage): 1.2 × 10^-7
S. mutans [2]; at 0.2%
  Maximum % Inhibition: 46%
S. epidermidis
  MIC: 0.5 µg/mL (≈ 1.11 µM)
S. mutans [3]
  MIC: 1 µg/mL (≈ 2.22 µM)
A. viscosus [4]
  Total Growth ID50 (50% growth inhibition dosage): 8.8 × 10^-4
A. viscosus [4]; at 0.2%
  Maximum % Inhibition: 53%
S. aureus
  MIC: 1 µg/mL (≈ 2.22 µM)
S. pyogenes
  MIC: 0.5 µg/mL (≈ 1.11 µM)

## CCCCCCCCCC(=O)c1ccc(O)c(C(=O)Nc2ccc([N+](=O)[O-])cc2)c1 [(b), 5-n-decanoyl-4'-nitrosalicylanilide, reference compound]
A. viscosus [1]; [6]
  MIC: 0.05 µg/mL (≈ 0.121 µM)
S. mutans [2]
  Total Growth ID50 (50% growth inhibition dosage): 2.3 × 10^-2
S. mutans [2]; at 0.2%
  Maximum % Inhibition: 59%
S. epidermidis; [7]
  MIC: 0.1 µg/mL (≈ 0.242 µM)
S. mutans [3]; [8]
  MIC: 5 µg/mL (≈ 12.1 µM)
A. viscosus [4]
  Total Growth ID50 (50% growth inhibition dosage): 1.1 × 10^-4
A. viscosus [4]; at 0.2%
  Maximum % Inhibition: 90%
S. aureus
  MIC: 0.1 µg/mL (≈ 0.242 µM)
S. pyogenes; [9]
  MIC: 0.1 µg/mL (≈ 0.242 µM)

## CCCCCCCCCCS(=O)(=O)c1ccc(O)c(C(=O)Nc2ccc([N+](=O)[O-])cc2)c1 [(c), 5-n-decylsulfonyl-4'-nitro-salicylanilide]
A. viscosus [1]; [6]
  MIC: 0.5 µg/mL (≈ 1.08 µM)
S. mutans [2]
  Total Growth ID50 (50% growth inhibition dosage): 1.9 × 10^-4
S. mutans [2]; at 0.2%
  Maximum % Inhibition: 80%
S. epidermidis; [7]
  MIC: 0.5 µg/mL (≈ 1.08 µM)
S. mutans [3]; [8]
  MIC: 0.5 µg/mL (≈ 1.08 µM)
A. viscosus [4]
  Total Growth ID50 (50% growth inhibition dosage): 2.3 × 10^-4
A. viscosus [4]; at 0.2%
  Maximum % Inhibition: 93%
S. aureus
  MIC: 0.5 µg/mL (≈ 1.08 µM)
S. pyogenes; [9]
  MIC: 0.5 µg/mL (≈ 1.08 µM)

## CCCCCCCCCCS(=O)(=O)c1ccc(O)c(C(=O)Nc2ccc(C(F)(F)F)cc2)c1 [(d), 5-n-decylsulfonyl-4'-trifluoromethyl-salicylanilide]
A. viscosus [1]; [6]
  MIC: 0.1 µg/mL (≈ 0.206 µM)
S. mutans [2]
  Total Growth ID50 (50% growth inhibition dosage): 1.9 × 10^-3
S. mutans [2]; at 0.2%
  Maximum % Inhibition: 76%
S. epidermidis; [7]
  MIC: 0.1 µg/mL (≈ 0.206 µM)
S. mutans [3]; [8]
  MIC: 0.5 µg/mL (≈ 1.03 µM)
A. viscosus [4]
  Total Growth ID50 (50% growth inhibition dosage): 0.9 × 10^-4
A. viscosus [4]; at 0.2%
  Maximum % Inhibition: 95%
White rats
  deaths: a second animal died
[5]
  LD50: > 2500 mg/kg
S. aureus
  MIC: 0.5 µg/mL (≈ 1.03 µM)
S. pyogenes; [9]
  MIC: 0.5 µg/mL (≈ 1.03 µM)

## CCCCCCCCCCS(=O)(=O)c1ccc(O)c(C(=O)Nc2cccc(C(F)(F)F)c2)c1 [(e), 5-n-decylsulfonyl-3'-trifluoromethyl-salicylanilide]
A. viscosus [1]; [6]
  MIC: 0.5 µg/mL (≈ 1.03 µM)
S. mutans [2]
  Total Growth ID50 (50% growth inhibition dosage): 2.2 × 10^-3
S. mutans [2]; at 0.1%
  Maximum % Inhibition: 47%
S. epidermidis; [7]
  MIC: 0.5 µg/mL (≈ 1.03 µM)
S. mutans [3]; [8]
  MIC: 5 µg/mL (≈ 10.3 µM)
A. viscosus [4]
  Total Growth ID50 (50% growth inhibition dosage): 6.8 × 10^-4
A. viscosus [4]; at 0.1%
  Maximum % Inhibition: 83%
S. aureus
  MIC: 20 µg/mL (≈ 41.2 µM)
S. pyogenes; [9]
  MIC: 0.5 µg/mL (≈ 1.03 µM)

## CCCCCCCCS(=O)(=O)c1ccc(O)c(C(=O)Nc2ccc([N+](=O)[O-])cc2)c1 [(f), 5-n-octylsulfonyl-4'-nitrosalicylanilide]
A. viscosus [1]; [6]
  MIC: 1 µg/mL (≈ 2.3 µM)
S. epidermidis; [7]
  MIC: 5 µg/mL (≈ 11.5 µM)
S. mutans [3]; [8]
  MIC: 0.5 µg/mL (≈ 1.15 µM)
S. aureus
  MIC: 5 µg/mL (≈ 11.5 µM)
S. pyogenes; [9]
  MIC: 5 µg/mL (≈ 11.5 µM)

## CCCCCCCCCCS(=O)(=O)c1ccc(O)c(C(=O)Nc2ccc(Br)cc2)c1 [(g), 5-n-decylsulfony-4'-bromosalicylanilide]
A. viscosus [1]; [6]
  MIC: 0.5 µg/mL (≈ 1.01 µM)
S. epidermidis; [7]
  MIC: 0.5 µg/mL (≈ 1.01 µM)
S. mutans [3]; [8]
  MIC: 1 µg/mL (≈ 2.01 µM)
S. aureus
  MIC: 5 µg/mL (≈ 10.1 µM)
S. pyogenes; [9]
  MIC: 0.5 µg/mL (≈ 1.01 µM)

## CCCCCCS(=O)(=O)c1ccc(O)c(C(=O)Nc2ccc(Br)cc2)c1 [(h), 5-n-hexylsulfonyl-4'-bromosalicylanilide]
A. viscosus [1]; [6]
  MIC: 5 µg/mL (≈ 11.4 µM)
S. epidermidis; [7]
  MIC: 10 µg/mL (≈ 22.7 µM)
S. aureus
  MIC: 5 µg/mL (≈ 11.4 µM)
S. pyogenes; [9]
  MIC: 5 µg/mL (≈ 11.4 µM)

## CCCCCCCCCCCCS(=O)(=O)c1ccc(O)c(C(=O)Nc2ccc(C(F)(F)F)cc2)c1 [(i), 5-n-dodecylsulfonyl-4'-trifluoromethyl salicylanilide]
A. viscosus [1]; [6]
  MIC: 0.05 µg/mL (≈ 0.0973 µM)
S. epidermidis; [7]
  MIC: 0.1 µg/mL (≈ 0.195 µM)
S. aureus
  MIC: 0.5 µg/mL (≈ 0.973 µM)
S. pyogenes; [9]
  MIC: 0.5 µg/mL (≈ 0.973 µM)

## tetrachlorosalicylanilide
man
  allergic reactions: has been shown to produce allergic reactions in man
